Entries after “also recorded” stand apart in the source; their conditions may differ.
Biological target: T1, TLR3 (Mus musculus, UniProt Q99MB1)
T1 construct: endogenous in cells; host or cells: sorted cDC1 from Flt3L-differentiated mouse bone marrow cultures
T1 sequence (Q99MB1 26-905): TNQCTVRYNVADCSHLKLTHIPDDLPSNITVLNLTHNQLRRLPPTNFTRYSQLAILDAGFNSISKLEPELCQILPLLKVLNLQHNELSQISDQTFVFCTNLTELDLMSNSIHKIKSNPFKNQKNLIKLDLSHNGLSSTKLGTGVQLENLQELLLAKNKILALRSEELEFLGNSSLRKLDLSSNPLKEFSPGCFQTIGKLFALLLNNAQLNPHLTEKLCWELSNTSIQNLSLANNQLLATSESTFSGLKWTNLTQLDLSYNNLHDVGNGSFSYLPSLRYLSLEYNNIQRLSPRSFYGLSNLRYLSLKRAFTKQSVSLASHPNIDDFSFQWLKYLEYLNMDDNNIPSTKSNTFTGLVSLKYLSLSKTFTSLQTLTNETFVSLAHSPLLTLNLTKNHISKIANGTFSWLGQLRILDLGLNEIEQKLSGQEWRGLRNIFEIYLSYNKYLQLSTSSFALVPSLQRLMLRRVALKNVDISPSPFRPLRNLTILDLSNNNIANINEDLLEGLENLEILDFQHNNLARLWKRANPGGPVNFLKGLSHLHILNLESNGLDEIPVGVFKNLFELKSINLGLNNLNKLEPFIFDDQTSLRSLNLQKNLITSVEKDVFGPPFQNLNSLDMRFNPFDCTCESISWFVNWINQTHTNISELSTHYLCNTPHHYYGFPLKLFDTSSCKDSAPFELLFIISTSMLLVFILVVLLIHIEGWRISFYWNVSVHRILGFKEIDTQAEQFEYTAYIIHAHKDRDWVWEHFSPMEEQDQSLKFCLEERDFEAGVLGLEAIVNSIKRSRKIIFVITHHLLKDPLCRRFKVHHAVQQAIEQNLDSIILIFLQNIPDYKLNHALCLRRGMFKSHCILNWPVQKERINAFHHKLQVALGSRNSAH
Assay: Cytokine production by sorted Flt3L-DC cDC1 activated with poly I:C LMW
Format: cell-based
Conditions: sorted cDC1, 10 μg/mL poly I:C LMW 6 h, GBZ 50 μM
Experimental: FIG. 1: Guanabenz inhibits TLR3 and TLR9 activation in mouse Flt3-L DCs and human blood pDCs. A) Sorted bone marrow derived Flt3L-DCs were activated for 6 h with 10 μg/mL poly I:C LMW (TLR3 in DC1) or 1 μM ODN 1585 (TLR9 in pDCs). GBZ was added at 50 μM and inhibited IFN-β and Interleukin-6 (IL-6) production in activated cells. B) hTLR4, hTLR3, hTLR9 and hTLR7 expressed in the reporter HEK-Blue™ cells are inhibited by GBZ. TLR-expressing HEK-Blue™ cells were respectively activated with 100 ng/mL LPS, 10 μg/mL poly I:C LMW, 2.5 μM ODN 2006 or 5 μg/mL imiquimod, respectively. GBZ was added at 50 μM. TLR activity was measured indirectly through SEAP activity as absorbance at 405 nm. […] Protein concentration of IFN-α and TNF-α secreted were measured at the indicated time points or at 16 h. […]
BM-derived DCs were differentiated in vitro from the bone marrow of 6-8 weeks old male mice, using either FLT3 ligand or GM-CSF. […] For sorted Flt3L-DCs, cells were gently harvested at day 7 with cold PBS 2% FCS, centrifuged 1200 rpm 5 min at 4° C., counted and stained with for 30 mins at 4° C. […]
Mouse IFN-β quantification in culture supernatant was performed using the Mouse Interferon Beta ELISA kit (PBL InterferonSource); mouse IL-6, TNFα, IL-10, human TNFα and human IFNα were quantified using ELISA kit (eBioscience) respectively, according to manufacturer instructions. […]

NC(N)=N/N=C/c1c(Cl)cccc1Cl [GBZ, 2-(2,6-dichlorobenzylidene)-hydrazinecarboximidamide]
IFN-β production: nearly abrogated; also recorded: inhibited | IL-6 production: nearly abrogated; also recorded: inhibited

Source: patent US20210177814A1, “USE OF GUANABENZ OR DERIVATES THEREOF FOR THE TREATMENT OF TYPE I IFN-DEPENDENT PATHOLOGIES” (INSERM (Institut National de la Santé et de la Recherche …, priority 2018, published 2021)
